According to patent US20060079453A1, “Hla binding peptides and their uses” (priority 2002, published 2006):
Values joined by “and” are separate entries in the source; they are usually repeats but may differ in a detail not shown here. Identical values can stand only once. Like-named read-outs stand apart in the source and are kept apart here. No end group written: not given here.

Columns and labels:
Experiment in all cases: biochemical
HLA-B*4002 = HLA-B*4002 (Homo sapiens, UniProt P01889, A65T/A93T/A95T/D138N/D201E/D98Y/E176V/E204Q/E69K/K202T/N87E/Q56L/Q94N/R180L/S48T/Y33H/Y91S); assay type: binding
HLA-B*1801 = HLA-B*1801 (Homo sapiens, UniProt P01889, A329T/A93T/A95T/C349S/D201E/D54G/D98Y/E176V/E187T/E204Q/E69T/K202T/Q94N/R155S/R180L/S121R/V306I/Y140S/Y195H/Y33H/Y91S); assay type: binding
HLA-B*4501 = HLA-B*4501 (Homo sapiens, UniProt P01889, A329T/A65T/A93T/A95T/C349S/D138N/D201E/D98Y/E176V/E187L/E204Q/E69K/H137Y/K202T/L119W/N87E/Q56L/Q94N/R155S/R180D/S121R/S35A/S48T/V127L/V306I/V36M/W191S/Y140L/Y33H/Y91S); assay type: binding
H-2Kk = H-2Kk (Mus musculus, UniProt P04223); assay type: binding, murine
H-2Kk, sequence (P04223 22-369): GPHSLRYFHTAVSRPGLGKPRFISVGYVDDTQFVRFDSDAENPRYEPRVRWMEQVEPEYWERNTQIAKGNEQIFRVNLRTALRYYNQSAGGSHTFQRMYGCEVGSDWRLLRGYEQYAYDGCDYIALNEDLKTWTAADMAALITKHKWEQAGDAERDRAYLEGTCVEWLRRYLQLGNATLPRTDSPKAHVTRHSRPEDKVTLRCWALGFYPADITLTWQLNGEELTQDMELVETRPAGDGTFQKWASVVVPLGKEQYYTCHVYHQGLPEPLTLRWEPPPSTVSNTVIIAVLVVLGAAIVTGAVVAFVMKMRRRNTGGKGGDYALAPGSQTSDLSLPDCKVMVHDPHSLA
H-2Kk, sequence (P61769 21-119, further chain): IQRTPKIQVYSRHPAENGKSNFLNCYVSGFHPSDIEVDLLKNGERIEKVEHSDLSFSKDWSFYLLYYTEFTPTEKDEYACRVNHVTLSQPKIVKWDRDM

HLA-B*4403 = HLA-B*4403 (Homo sapiens, UniProt P01889, A223V/A65T/A93T/A95T/D201E/D98Y/E176V/E187L/E204Q/E69K/G107R/H137Y/K202T/L105A/L119I/N104T/N87E/Q56L/Q94N/R106L/R155S/R180L/S101N/S121R/S35A/S48T/T118I/V36M/W191S/Y140D/Y91S); assay type: binding
HLA-B*4402 = HLA-B*4402 (Homo sapiens, UniProt P01889, A223V/A65T/A93T/A95T/D201E/D98Y/E176V/E187L/E204Q/E69K/G107R/H137Y/K202T/L105A/L119I/N104T/N87E/Q56L/Q94N/R106L/R155S/R180D/S101N/S121R/S35A/S48T/T118I/V36M/W191S/Y140D/Y91S); assay type: binding
HLA-B*4001 = HLA-B*4001 (Homo sapiens, UniProt P01889, A65T/A93T/A95T/D138N/D98Y/E176V/E69K/N87E/Q56L/Q94N/R180L/S121R/S35A/S48T/T167S/V36M/W171L/Y33H/Y91S); assay type: binding
H-2Ld = H-2Ld (Mus musculus, UniProt P01897); assay type: binding, murine
H-2Ld, sequence (P01897 25-362): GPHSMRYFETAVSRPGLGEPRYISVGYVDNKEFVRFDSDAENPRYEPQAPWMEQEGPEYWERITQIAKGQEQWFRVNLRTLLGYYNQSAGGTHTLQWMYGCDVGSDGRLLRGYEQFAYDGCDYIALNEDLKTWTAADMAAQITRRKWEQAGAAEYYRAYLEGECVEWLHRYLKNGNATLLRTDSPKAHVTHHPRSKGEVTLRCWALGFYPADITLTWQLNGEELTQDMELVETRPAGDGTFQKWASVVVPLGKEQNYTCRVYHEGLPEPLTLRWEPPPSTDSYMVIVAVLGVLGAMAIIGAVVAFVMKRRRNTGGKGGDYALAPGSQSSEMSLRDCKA
H-2Ld, sequence (P61769 21-119, further chain): as the sequence (P61769 21-119, further chain) above

H-2 Db = H-2 Db (Mus musculus, UniProt P01899); assay type: binding, murine; settings: Db
H-2 Db, sequence (P61769 21-119): as the sequence (P61769 21-119, further chain) above
H-2 Db, sequence (P01899 25-362): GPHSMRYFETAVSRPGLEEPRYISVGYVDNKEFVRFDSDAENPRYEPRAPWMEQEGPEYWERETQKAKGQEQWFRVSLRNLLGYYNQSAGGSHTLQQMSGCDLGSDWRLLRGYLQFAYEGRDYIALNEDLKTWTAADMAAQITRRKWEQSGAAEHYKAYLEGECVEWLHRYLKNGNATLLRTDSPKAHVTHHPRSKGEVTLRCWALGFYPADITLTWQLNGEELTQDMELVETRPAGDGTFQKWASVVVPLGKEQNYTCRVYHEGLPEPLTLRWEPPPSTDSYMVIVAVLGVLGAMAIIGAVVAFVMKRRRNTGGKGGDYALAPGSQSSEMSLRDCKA

HLA-B*5301 = HLA-B*5301 (Homo sapiens, UniProt P01889, A329T/A93T/A95T/C349S/D201E/D98Y/E176V/E187L/E204Q/E69T/G107R/I218V/K202T/L105A/L119I/N104I/Q94N/R106L/R155S/R180L/S101N/S121R/S35A/S48A/T118I/V127L/V306I/V36M/Y140S/Y91F); assay type: binding
HLA-B*5101 = HLA-B*5101 (Homo sapiens, UniProt P01889, A329T/A93T/A95T/C349S/D138N/D201E/D98Y/E187L/E204Q/E69T/G107R/I218V/K202T/L105A/L119W/N104I/Q94N/R106L/R155S/R180L/S101N/S121T/S35A/S48A/V306I/V36M/Y195H/Y91F); settings: B*5101 binding affinity (IC50)
HLA-B*0702 = HLA-B*0702 (Homo sapiens, UniProt P01889); assay type: binding
HLA-B*3501 = HLA-B*3501 (Homo sapiens, UniProt P01889, A329T/A93T/A95T/C349S/D201E/D98Y/E176V/E187L/E204Q/E69T/I218V/K202T/L119I/Q94N/R155S/R180L/S121R/S35A/S48A/T118I/V127L/V306I/V36M/Y140S/Y91F); settings: B*3501 binding affinity (IC50)
HLA-B*5401 = HLA-B*5401 (Homo sapiens, UniProt P01889, A329T/C349S/D138N/D201E/E176V/E187T/E204Q/E69G/I76V/K202T/L119W/R155S/R180L/S121T/S35A/S48A/V127L/V306I/V36M/Y140L); assay type: binding

Work on NEILIRCII yielded an IC50 (HLA-B*4002; B*4002) of 59 nM, an IC50 (HLA-B*1801; B*1801) of 5670 nM and an IC50 (HLA-B*4501; B*4501) of 3250 nM. For the same sequence, the IC50 (H-2Kk) was 12 nM and the IC50 (HLA-B*4403; B*4403) was 258 nM.

With QEKKRHVDL the IC50 (HLA-B*4402; B*4402) was 443 nM, the IC50 (HLA-B*4002; B*4002) was 63100 nM and the IC50 (HLA-B*1801; B*1801) was 7.3 nM. The IC50 (HLA-B*4501; B*4501) was 12600 nM, the IC50 (H-2Kk) was 256 nM and the IC50 (HLA-B*4001; B*4001) was 16000 nM.

RIPNASGVYM showed an IC50 (H-2Ld; read-out: Ld) of 19 nM.

For RPQASGVAM, the IC50 (H-2Ld; Ld) was 12 nM.

RPQASGVYM was tested, and the IC50 (H-2Ld; Ld) was 0.99 nM and 3 nM and the IC50 (H-2 Db) was over 44000 nM.

Work on RPQASQVYM yielded an IC50 (H-2Ld; Ld) of 3.8 nM.

RPQGSGVYM was tested, and the IC50 (H-2Ld; Ld) was 39 nM.

In the case of RPQVPLRPI, the IC50 (HLA-B*5301; B*5301 binding affinity (IC50)) is reported as 85300 nM, the IC50 (HLA-B*5101) is reported as over 9000 nM and the IC50 (HLA-B*0702; B*0702 binding affinity (IC50)) is reported as 367 nM. The IC50 (HLA-B*3501) was over 23200 nM.

Sequence RPRGPGPGSEF has an IC50 (HLA-B*5301; B*5301 binding affinity (IC50)) of 19300 nM, an IC50 (HLA-B*5101) of over 14800 nM and an IC50 (HLA-B*5401; B*5401 binding affinity (IC50)) of 2740 nM. For the same sequence, the IC50 (HLA-B*0702; B*0702 binding affinity (IC50)) was 11 nM and the IC50 (HLA-B*3501) was 24900 nM.

For SDYEGRLI, the IC50 (HLA-B*4002) was 86 nM, the IC50 (HLA-B*1801) was over 24800 nM and the IC50 (H-2Kk) was 0.6 nM. The IC50 (HLA-B*4403) was 228 nM.

SEAAYAKKI gave an IC50 (HLA-B*4402; B*4402) of 1680 nM, an IC50 (HLA-B*1801; B*1801) of 8610 nM and an IC50 (H-2Kk) of 3.9 nM. It also gave an IC50 (HLA-B*4001; B*4001) of 308 nM and an IC50 (HLA-B*4403; B*4403) of 61 nM.

For SENDRYRLL, the IC50 (H-2Kk; read-out: Kk) was 13 nM.

Work on SPGPGPGL yielded an IC50 (HLA-B*5301; B*5301 binding affinity (IC50)) of 25600 nM, an IC50 (HLA-B*5101) of 3540 nM and an IC50 (HLA-B*5401; B*5401 binding affinity (IC50)) of 53300 nM. It also gave an IC50 (HLA-B*0702; B*0702 binding affinity (IC50)) of 173 nM and an IC50 (HLA-B*3501) of 2340 nM.

Work on TPAGPGPGVF yielded an IC50 (HLA-B*5301; B*5301 binding affinity (IC50)) of 2630 nM, an IC50 (HLA-B*0702; B*0702 binding affinity (IC50)) of 334 nM and an IC50 (HLA-B*3501) of 374 nM.

With TPAIRGPGPGF the IC50 (HLA-B*5301; read-out: B*5301 binding affinity (IC50)) was 2740 nM, the IC50 (HLA-B*5401; read-out: B*5401 binding affinity (IC50)) was 31800 nM and the IC50 (HLA-B*0702; read-out: B*0702 binding affinity (IC50)) was 144 nM.

TPTGWGLAI showed an IC50 (HLA-B*5301; B*5301 binding affinity (IC50)) of 1340 nM, an IC50 (HLA-B*0702; B*0702 binding affinity (IC50)) of 76 nM and an IC50 (HLA-B*3501) of 5140 nM.

VESENKVV showed an IC50 (H-2Kk) of 349 nM.

Sequence YEANGNLI has an IC50 (HLA-B*4402) of 516 nM, an IC50 (HLA-B*4002) of 7 nM and an IC50 (HLA-B*1801) of 191 nM. For the same sequence, the IC50 (H-2Kk) was 0.65 nM and the IC50 (HLA-B*4001) was 7.9 nM.

Work on YEDTGKTI yielded an IC50 (HLA-B*4402; B*4402) of 7910 nM, an IC50 (HLA-B*4002; B*4002) of 83 nM and an IC50 (HLA-B*1801; B*1801) of 14000 nM. The IC50 (HLA-B*4501; read-out: B*4501) was 49000 nM, the IC50 (H-2Kk) was 0.86 nM and the IC50 (HLA-B*4001; B*4001) was 794 nM.

With YENDIEKKI the IC50 (HLA-B*4402; B*4402) was 1730 nM, the IC50 (HLA-B*1801; B*1801) was 31000 nM and the IC50 (H-2Kk) was 3.8 nM. It also gave an IC50 (HLA-B*4403; B*4403) of 371 nM.

YPHFMLPTNL showed an IC50 (H-2Ld; read-out: Ld) of 7.5 nM.
